From ChEMBL document CHEMBL1201862, “PubChem BioAssay data set” (2004)
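Protocol summary: plate cells (96-well), add compound at 5 concentrations, incubate 48 h, interpolate endpoints linearly. Here, GI50 denotes the concentration required for 50% inhibition of growth.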 The source made the active and inactive calls. Rule as the data show it: active = GI50 up to about 1.1 µM and inactive = higher.

What was measured:
Assay in all cases: DTP human tumour cell line panel, 48 h
786-0 = system: 786-0
A549 = system: A549
ACHN = system: ACHN
BT-549 = system: BT-549
CAKI-1 = system: CAKI-1
CCRF-CEM = system: CCRF-CEM
COLO 205 = system: COLO 205
DU-145 = system: DU-145
EKVX = system: EKVX
HCC 2998 = system: HCC 2998
HCT-116 = system: HCT-116
HCT-15 = system: HCT-15
HL-60 = system: HL-60
HOP-62 = system: HOP-62
HT-29 = system: HT-29
Hs-578T = system: Hs-578T
IGROV-1 = system: IGROV-1
K562 = system: K562
KM12 = system: KM12
LOX IMVI = system: LOX IMVI
M14 = system: M14
MCF7 = system: MCF7
MDA-MB-231 = system: MDA-MB-231
MDA-MB-435 = system: MDA-MB-435
MDA-N = system: MDA-N
MOLT-4 = system: MOLT-4
Malme-3M = system: Malme-3M
NCI-H226 = system: NCI-H226
NCI-H23 = system: NCI-H23
NCI-H460 = system: NCI-H460
NCI/ADR-RES = system: NCI/ADR-RES
OVCAR-3 = system: OVCAR-3
OVCAR-4 = system: OVCAR-4
OVCAR-5 = system: OVCAR-5
OVCAR-8 = system: OVCAR-8
PC-3 = system: PC-3
RPMI-8226 = system: RPMI-8226
RXF 393 = system: RXF 393
SF-268 = system: SF-268
SF-295 = system: SF-295
SK-MEL-28 = system: SK-MEL-28
SK-MEL-2 = system: SK-MEL-2
SK-MEL-5 = system: SK-MEL-5
SK-OV-3 = system: SK-OV-3
SN12C = system: SN12C
SNB-19 = system: SNB-19
SNB-75 = system: SNB-75
SR = system: SR
SW-620 = system: SW-620
T47D = system: T47D
TK-10 = system: TK-10
U-251 = system: U-251
UACC-257 = system: UACC-257
UACC-62 = system: UACC-62
UO-31 = system: UO-31
NCI-H522 = system: NCI-H522

Measured: GI50

Oc1ccc(-c2nc(-c3ccc4ccccc4n3)c(-c3ccc(F)cc3)[nH]2)cc1
10.7 µM: HCT-15
inactive: 786-0 15.2 µM | A549 11.6 µM | ACHN 12.3 µM | BT-549 17.7 µM | CAKI-1 13.6 µM | CCRF-CEM 15.1 µM | COLO 205 14.6 µM | DU-145 15.5 µM | EKVX 17.8 µM | HCC 2998 3.94 µM | HCT-116 12.9 µM | HL-60 5.94 µM | HOP-62 18 µM | HT-29 7.55 µM | Hs-578T 11 µM | IGROV-1 13 µM | K562 14.5 µM | KM12 5.26 µM | LOX IMVI 10.6 µM | M14 11 µM | MCF7 4.61 µM | MDA-MB-231 18.5 µM | MDA-MB-435 12.2 µM | MDA-N 11.9 µM | MOLT-4 1.87 µM | Malme-3M 13.7 µM | NCI-H226 14.2 µM | NCI-H23 12.5 µM | NCI-H460 5.45 µM | NCI/ADR-RES 4.74 µM | OVCAR-3 6.19 µM | OVCAR-4 11.2 µM | OVCAR-5 15.9 µM | OVCAR-8 12.5 µM | PC-3 9.08 µM | RPMI-8226 5.62 µM | RXF 393 15.2 µM | SF-268 13 µM | SF-295 10.4 µM | SK-MEL-28 17.4 µM | SK-MEL-2 14.5 µM | SK-MEL-5 2.12 µM | SK-OV-3 15.3 µM | SN12C 15.3 µM | SNB-19 17.3 µM | SNB-75 21.6 µM | SR 6.25 µM | SW-620 14.3 µM | T47D 7.11 µM | TK-10 13.2 µM | U-251 10.6 µM | UACC-257 13.5 µM | UACC-62 11.5 µM | UO-31 11.6 µM

CN(C)CCc1ccnc2nc(-c3ccc4ccccc4c3)cn12
inactive: 786-0 25 µM | A549 > 100 µM | ACHN 29.4 µM | BT-549 23.4 µM | CAKI-1 35.2 µM | CCRF-CEM 33.3 µM | COLO 205 33.3 µM | DU-145 45.2 µM | EKVX 38 µM | HCC 2998 18.5 µM | HCT-116 31.7 µM | HL-60 36.9 µM | HOP-62 56.9 µM | HT-29 17.8 µM | Hs-578T 17.8 µM | IGROV-1 23.9 µM | K562 79.8 µM | KM12 18.1 µM | LOX IMVI 25 µM | M14 47.8 µM | MCF7 34.7 µM | MDA-MB-231 28.8 µM | MDA-MB-435 33.3 µM | MDA-N 29.6 µM | MOLT-4 35.2 µM | Malme-3M 96.4 µM | NCI-H226 27.8 µM | NCI-H23 20.4 µM | NCI-H460 14.7 µM | NCI-H522 12 µM | NCI/ADR-RES 26.2 µM | OVCAR-3 25.8 µM | OVCAR-4 27.5 µM | OVCAR-5 47.1 µM | OVCAR-8 26.9 µM | PC-3 33.7 µM | RPMI-8226 > 100 µM | RXF 393 30.9 µM | SF-268 23 µM | SF-295 88.7 µM | SK-MEL-28 45.6 µM | SK-MEL-2 > 100 µM | SK-MEL-5 34.7 µM | SK-OV-3 38.5 µM | SN12C 26.8 µM | SNB-19 69.2 µM | SR 57.5 µM | SW-620 21.4 µM | T47D 34.9 µM | TK-10 15.7 µM | U-251 38.2 µM | UACC-257 36.3 µM | UACC-62 44.5 µM | UO-31 52.6 µM
34.6 µM: HCT-15
